Test results published in patent US11702442B2, “Cyclic dinucleotide compounds as sting agonists” (The Regents of the University of California, priority 2019, dated 2023).
Entries after “also recorded” stand apart in the source; their conditions may differ.

Tested on: STING pathway
Assay: Type-I IFN production in THP-1 cells detected with HEK-Blue IFN α/β reporter cells
Format: cell-based, human
Details: 5 μM CDN, 4 h incubation, compared with c-di-GMP
Description: THP-1 cells were seeded at a density of 100000 cells/well in a 96-well cell culture plate and differentiated with 25 nM of PMA for approximately 20 h prior to treatment with CDNs. Cells were transfected with 5 μM of CDNs in a permeabilization buffer containing 5 μg/mL of digitonin, then washed and incubated in RPMI medium with 2% FBS at 37° C. for 4 h. 50 μL of cell culture supernatant per well was transferred to 150 μL of HEK-Blue IFN α/β reporter cells seeded at 50000 cells/well in a 96-well cell culture plate and incubated at 37° C. overnight. The reporter cells were spun down the next day, and 50 μL of cell culture supernatant per well was transferred to a 96-well plate and added with 150 μL of QUANTI-Blue™ SEAP detection medium (InvivoGen). The samples were then incubated at 37° C. for 1 h 20 min before absorption was measured at 640 nm. The absorption signal of each sample was normalized to untreated samples. Two independent assays were performed in duplicate or triplicate. Error bars indicate SD.
To preliminarily determine whether the synthetic c-di-GMP analogues could activate the IFN response in eukaryotic cells, THP-1 cells were treated with 5 μM of c-di-GMP, c-GthGMP and c-di-thGMP.
Detecting type-I IFN production with reporter cells. […] The samples were then incubated at 37° C. for 80 min before absorption was measured at 640 nm with an EnSpire plate reader (PerkinElmer). […]

SMILES | type-I IFN induction
Nc1nc2c([C@@H]3O[C@@H]4COP(=O)(O)O[C@H]5[C@@H](O)[C@H](c6scc7c(=O)[nH]c(N)nc67)O[C@@H]5COP(=O)(O)O[C@H]4[C@H]3O)scc2c(=O)[nH]1 [c-di-^thGMP] | no activity
Nc1nc2c([C@@H]3O[C@@H]4COP(=O)(O)O[C@H]5[C@@H](O)[C@H](n6cnc7c(=O)[nH]c(N)nc76)O[C@@H]5COP(=O)(O)O[C@H]4[C@H]3O)scc2c(=O)[nH]1 [c-G^thGMP] | comparable efficiency to cdi-GMP; also recorded: comparable potency to c-di-GMP
